# Laboratory results: patent US20130274338A1, “PHARMACEUTICAL COMPOSITIONS COMPRISING DGLA, 15-OHEPA, AND/OR 15-HETRE AND METHODS OF REDUCING SEBUM PRODUCTION USING SAME” (priority 2012, published 2013)
# System: P. acnes
# Test: Agar dilution method, growth of P. acnes and MIC, combinations with a fatty acid spike
# Assay type: cell-based, Propionibacterium acnes
# Set-up: key to Growth Index Plate 1 / Growth Index Plate 2 / Growth Index Plate 3 / Growth Index Avg: +++: confluent growth (comparable to control); ++: less confluent growth; +: marked reduction in growth to multiple tiny, single colonies; −: no growth present
# [1] = compound at 1 mg/mL + 0.01 mg/mL 15-HETrE
# [2] = compound at 1 mg/mL + 0.05 mg/mL 15-HETrE
# [3] = compound at 1 mg/mL + 0.05 mg/mL 15-OHEPA
# [4] = compound at 1 mg/mL + 0.1 mg/mL 15-OHEPA
# [5] = compound at 1 mg/mL + 0.4 mg/mL dGLA
# [6] = compound at 1 mg/mL + 1.0 mg/mL dGLA
# [7] = compound at 5 mg/mL + 0.01 mg/mL 15-HETrE
# [8] = compound at 5 mg/mL + 0.05 mg/mL 15-HETrE
# [9] = compound at 5 mg/mL + 0.05 mg/mL 15-OHEPA
# [10] = compound at 5 mg/mL + 0.1 mg/mL 15-OHEPA
# [11] = compound at 5 mg/mL + 0.4 mg/mL dGLA
# [12] = compound at 5 mg/mL + 1.0 mg/mL dGLA
# [13] = compound at 10 mg/mL + 0.01 mg/mL 15-HETrE
# [14] = compound at 10 mg/mL + 0.05 mg/mL 15-HETrE
# [15] = compound at 10 mg/mL + 0.05 mg/mL 15-OHEPA
# [16] = compound at 10 mg/mL + 0.1 mg/mL 15-OHEPA
# [17] = compound at 10 mg/mL + 0.4 mg/mL dGLA
# [18] = compound at 10 mg/mL + 1.0 mg/mL dGLA
# [19] = compound at 15 mg/mL + 0.01 mg/mL 15-HETrE
# [20] = compound at 15 mg/mL + 0.05 mg/mL 15-HETrE
# [21] = compound at 15 mg/mL + 0.05 mg/mL 15-OHEPA
# [22] = compound at 15 mg/mL + 0.1 mg/mL 15-OHEPA
# [23] = compound at 15 mg/mL + 0.4 mg/mL dGLA
# [24] = compound at 15 mg/mL + 1.0 mg/mL dGLA
# [25] = compound at 25 mg/mL + 0.01 mg/mL 15-HETrE
# [26] = compound at 25 mg/mL + 0.05 mg/mL 15-HETrE
# [27] = compound at 25 mg/mL + 0.05 mg/mL 15-OHEPA
# [28] = compound at 25 mg/mL + 0.1 mg/mL 15-OHEPA
# [29] = compound at 25 mg/mL + 0.4 mg/mL dGLA
# [30] = compound at 25 mg/mL + 1.0 mg/mL dGLA
smiles,measurement,setting,value
NC(=O)c1cccnc1 [Nicotinamide],Growth Index Avg,[1],+++
same,Growth Index Plate 1,[1],+++
same,Growth Index Plate 2,[1],+++
same,Growth Index Plate 3,[1],+++
same,Growth Index Avg,[2],−
same,Growth Index Plate 1,[2],−
same,Growth Index Plate 2,[2],−
same,Growth Index Plate 3,[2],−
same,Growth Index Avg,[3],+++
same,Growth Index Plate 1,[3],+++
same,Growth Index Plate 2,[3],+++
same,Growth Index Plate 3,[3],+++
same,Growth Index Avg,[4],−
same,Growth Index Plate 1,[4],−
same,Growth Index Plate 2,[4],−
same,Growth Index Plate 3,[4],−
same,Growth Index Avg,[5],+++
same,Growth Index Plate 1,[5],+++
same,Growth Index Plate 2,[5],+++
same,Growth Index Plate 3,[5],+++
same,Growth Index Avg,[6],+++
same,Growth Index Plate 1,[6],+++
same,Growth Index Plate 2,[6],+++
same,Growth Index Plate 3,[6],+++
same,Growth Index Avg,[7],+++
same,Growth Index Plate 1,[7],+++
same,Growth Index Plate 2,[7],+++
same,Growth Index Plate 3,[7],+++
same,Growth Index Avg,[8],−
same,Growth Index Plate 1,[8],−
same,Growth Index Plate 2,[8],−
same,Growth Index Plate 3,[8],−
same,Growth Index Avg,[9],+++
same,Growth Index Plate 1,[9],+++
same,Growth Index Plate 2,[9],+++
same,Growth Index Plate 3,[9],+++
same,Growth Index Avg,[10],−
same,Growth Index Plate 1,[10],−
same,Growth Index Plate 2,[10],−
same,Growth Index Plate 3,[10],−
same,Growth Index Avg,[11],+++
same,Growth Index Plate 1,[11],+++
same,Growth Index Plate 2,[11],+++
same,Growth Index Plate 3,[11],+++
same,Growth Index Avg,[12],+++
same,Growth Index Plate 1,[12],+++
same,Growth Index Plate 2,[12],+++
same,Growth Index Plate 3,[12],+++
same,Growth Index Avg,[13],++
same,Growth Index Plate 1,[13],++
same,Growth Index Plate 2,[13],++
same,Growth Index Plate 3,[13],++
same,Growth Index Avg,[14],−
same,Growth Index Plate 1,[14],−
same,Growth Index Plate 2,[14],−
same,Growth Index Plate 3,[14],−
same,Growth Index Avg,[15],+++
same,Growth Index Plate 1,[15],+++
same,Growth Index Plate 2,[15],+++
same,Growth Index Plate 3,[15],+++
same,Growth Index Avg,[16],−
same,Growth Index Plate 1,[16],−
same,Growth Index Plate 2,[16],−
same,Growth Index Plate 3,[16],−
same,Growth Index Avg,[17],+++
same,Growth Index Plate 1,[17],+++
same,Growth Index Plate 2,[17],+++
same,Growth Index Plate 3,[17],+++
same,Growth Index Avg,[18],++
same,Growth Index Plate 1,[18],+
same,Growth Index Plate 2,[18],++
same,Growth Index Plate 3,[18],++
same,Growth Index Avg,[19],−
same,Growth Index Plate 1,[19],−
same,Growth Index Plate 2,[19],−
same,Growth Index Plate 3,[19],−
same,Growth Index Avg,[20],−
same,Growth Index Plate 1,[20],−
same,Growth Index Plate 2,[20],−
same,Growth Index Plate 3,[20],−
same,Growth Index Avg,[21],−
same,Growth Index Plate 1,[21],−
same,Growth Index Plate 2,[21],−
same,Growth Index Plate 3,[21],−
same,Growth Index Avg,[22],−
same,Growth Index Plate 1,[22],−
same,Growth Index Plate 2,[22],−
same,Growth Index Plate 3,[22],−
same,Growth Index Avg,[23],+
same,Growth Index Plate 1,[23],+
same,Growth Index Plate 2,[23],+
same,Growth Index Plate 3,[23],+
same,Growth Index Avg,[24],−
same,Growth Index Plate 1,[24],−
same,Growth Index Plate 2,[24],−
same,Growth Index Plate 3,[24],−
same,Growth Index Avg,[25],−
same,Growth Index Plate 1,[25],−
same,Growth Index Plate 2,[25],−
same,Growth Index Plate 3,[25],−
same,Growth Index Avg,[26],−
same,Growth Index Plate 1,[26],−
same,Growth Index Plate 2,[26],−
same,Growth Index Plate 3,[26],−
same,Growth Index Avg,[27],−
same,Growth Index Plate 1,[27],−
same,Growth Index Plate 2,[27],−
same,Growth Index Plate 3,[27],−
same,Growth Index Avg,[28],−
same,Growth Index Plate 1,[28],−
same,Growth Index Plate 2,[28],−
same,Growth Index Plate 3,[28],−
same,Growth Index Avg,[29],−
same,Growth Index Plate 1,[29],−
same,Growth Index Plate 2,[29],−
same,Growth Index Plate 3,[29],−
same,Growth Index Avg,[30],−
same,Growth Index Plate 1,[30],−
same,Growth Index Plate 2,[30],−
same,Growth Index Plate 3,[30],−
same,"growth of P. Acnes in combination with 15-HETrE, compared with 15-HETrE used alone",in combination with 15-HETrE,did not reduce the growth
same,"growth of P. Acnes in combination with 15-OHEPA, compared with 15 OHEPA used alone",in combination with 15-OHEPA,did not reduce the growth
same,"growth of P. Acnes in combination with DGLA, compared with DGLA used alone",in combination with DGLA,did not reduce the growth
